Series [1] has as its system αKlotho. Put plainly: Release of soluble αKlotho in supernatant of primary tubule cell cultures (RPTEC), ELISA. The settings on record: for Average Klotho value: RPTEC supernatant. The format is cell-based. As for the experimental part: Concentrations of H2O2 equal to 0.1, 0.2, 0.5 up to 1 mM were also tested. […] The soluble aKlotho analysis was performed using the commercial test ELISA lbl code 277789 following the manufacturer's instructions. […] The soluble aKlotho analysis was performed using ELISA lbl test.
Background: ELISA stands for enzyme-linked immunosorbent assay.

Series [2] concerns primary renal tubule cells. The series is described as follows: MTT test, cell proliferation/viability of primary renal tubule cells. Format: cell-based. Particulars: tubule cells exposed to H2O2 0.5 mM alone. Background: Tetrazolium dyes change colour on reduction, which living cells bring about.

In the case of `C[N+](C)(C)C[C@H](O)CC(=O)[O-]` [Carnitine, L-Carnitine], the “Average Klotho value” in series [1] (pre-treatment 12 h at 5 mM, then 6 h Gentamicin sulphate 10 mM) stood at 6.68 pg/mL; in series [1] (pre-treatment 12 h at 5 mM, then 6 h Iodixanol 100 mg/ml), 77.06 pg/mL; in series [1] (pretreatment 12 h at 5 mM, then 6 h H2O2 0.1 mM), 140.25 pg/mL.
As to `OO` [H2O2], the “Cell viability (MTT test)” value in series [2] was “significant reduction in cell viability”. The “Lowest concentration able to induce a statistically significant reduction in Klotho” value in series [1] (6 hours exposure of primary tubule cells) turned out to be 0.1 mM. Further, the “Average Klotho value” in series [1] (H2O2 6 h alone (0.1 mM), no pretreatment) worked out at 55.42 pg/mL.
As to `CC(=O)N(CC(O)CN(C(C)=O)c1c(I)c(C(=O)NCC(O)CO)c(I)c(C(=O)NCC(O)CO)c1I)c1c(I)c(C(=O)NCC(O)CO)c(I)c(C(=O)NCC(O)CO)c1I` (centres unmarked) [Iodixanol], the “Change in Klotho compared to the basal condition” value in series [1] (Iodixanol contrast medium only, 6 hours) is reported as “drastic reduction in Klotho”. Also, in series [1] (Iodixanol 100 mg/ml 6 h alone), the “Average Klotho value” came out at 0 pg/mL.

The values are drawn from patent US12622887B2 (priority 2019, dated 2026).
